Results on 3 compounds are retold here after article PMC6812009, “Covalent Aurora A regulation by the metabolic integrator coenzyme A” (Redox Biology, 2019).

Common to all, as to experiment: Kinase profiling screen (radioactive filter-binding assay)
Holding throughout (assay type): biochemical

In one test the target is T1, PKD1 (Homo sapiens, UniProt Q15139).
T1 sequence (Q15139 1-912): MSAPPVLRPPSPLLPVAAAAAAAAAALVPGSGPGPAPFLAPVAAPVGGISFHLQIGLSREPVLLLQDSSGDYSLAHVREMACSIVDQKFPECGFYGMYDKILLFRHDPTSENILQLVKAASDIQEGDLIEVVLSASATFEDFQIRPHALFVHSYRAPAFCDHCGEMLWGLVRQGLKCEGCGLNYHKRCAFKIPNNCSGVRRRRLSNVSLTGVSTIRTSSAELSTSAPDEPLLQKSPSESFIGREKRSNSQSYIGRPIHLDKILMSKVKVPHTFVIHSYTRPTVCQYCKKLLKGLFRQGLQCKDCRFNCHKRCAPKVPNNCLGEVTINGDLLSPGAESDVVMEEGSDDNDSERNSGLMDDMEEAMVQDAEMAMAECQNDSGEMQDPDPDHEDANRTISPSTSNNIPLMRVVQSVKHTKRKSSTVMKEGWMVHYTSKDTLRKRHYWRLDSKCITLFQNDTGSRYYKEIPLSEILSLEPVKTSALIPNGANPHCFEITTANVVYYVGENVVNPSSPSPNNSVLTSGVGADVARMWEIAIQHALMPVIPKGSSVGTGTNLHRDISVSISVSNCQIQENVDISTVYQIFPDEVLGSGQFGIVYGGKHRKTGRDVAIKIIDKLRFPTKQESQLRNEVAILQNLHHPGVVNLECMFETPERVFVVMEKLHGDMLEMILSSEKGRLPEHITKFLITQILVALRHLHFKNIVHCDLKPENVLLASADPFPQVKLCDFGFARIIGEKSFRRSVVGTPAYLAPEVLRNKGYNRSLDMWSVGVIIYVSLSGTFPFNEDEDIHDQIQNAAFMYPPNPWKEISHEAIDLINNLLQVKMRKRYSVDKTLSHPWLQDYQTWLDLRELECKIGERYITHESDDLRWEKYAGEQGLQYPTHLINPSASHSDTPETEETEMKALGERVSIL
The following applies: 100 μM compound, 50 μM ATP; read-out: Kinase activity, % of activity in the absence of inhibitor. The protocol: (§1) Profiling of 117 protein kinases with CoA, dpCoA and ADP was carried out at the International Centre for Protein Kinase Profiling at the University of Dundee. Each compound was tested in vitro, in duplicate, at 100 μM final concentration using recombinant kinases, model substrates and optimal concentrations of ATP. Bacterially expressed full-length His-Aurora A was used to determine the IC50 value for CoA (in the presence or absence of DTT), dpCoA, ADP and desulfo-CoA. The assay was performed in the presence of 5 μM competing ATP. To examine whether the inhibitory effect of CoA on Aurora A is modulated by TPX2, IC50 values for CoA were also generated in the presence and absence of 1 μg TPX2 (residues 1–43) fragment.

The next test has as its target T2, EPH-B3 (Homo sapiens, UniProt P54753).
T2 sequence (P54753 34-998): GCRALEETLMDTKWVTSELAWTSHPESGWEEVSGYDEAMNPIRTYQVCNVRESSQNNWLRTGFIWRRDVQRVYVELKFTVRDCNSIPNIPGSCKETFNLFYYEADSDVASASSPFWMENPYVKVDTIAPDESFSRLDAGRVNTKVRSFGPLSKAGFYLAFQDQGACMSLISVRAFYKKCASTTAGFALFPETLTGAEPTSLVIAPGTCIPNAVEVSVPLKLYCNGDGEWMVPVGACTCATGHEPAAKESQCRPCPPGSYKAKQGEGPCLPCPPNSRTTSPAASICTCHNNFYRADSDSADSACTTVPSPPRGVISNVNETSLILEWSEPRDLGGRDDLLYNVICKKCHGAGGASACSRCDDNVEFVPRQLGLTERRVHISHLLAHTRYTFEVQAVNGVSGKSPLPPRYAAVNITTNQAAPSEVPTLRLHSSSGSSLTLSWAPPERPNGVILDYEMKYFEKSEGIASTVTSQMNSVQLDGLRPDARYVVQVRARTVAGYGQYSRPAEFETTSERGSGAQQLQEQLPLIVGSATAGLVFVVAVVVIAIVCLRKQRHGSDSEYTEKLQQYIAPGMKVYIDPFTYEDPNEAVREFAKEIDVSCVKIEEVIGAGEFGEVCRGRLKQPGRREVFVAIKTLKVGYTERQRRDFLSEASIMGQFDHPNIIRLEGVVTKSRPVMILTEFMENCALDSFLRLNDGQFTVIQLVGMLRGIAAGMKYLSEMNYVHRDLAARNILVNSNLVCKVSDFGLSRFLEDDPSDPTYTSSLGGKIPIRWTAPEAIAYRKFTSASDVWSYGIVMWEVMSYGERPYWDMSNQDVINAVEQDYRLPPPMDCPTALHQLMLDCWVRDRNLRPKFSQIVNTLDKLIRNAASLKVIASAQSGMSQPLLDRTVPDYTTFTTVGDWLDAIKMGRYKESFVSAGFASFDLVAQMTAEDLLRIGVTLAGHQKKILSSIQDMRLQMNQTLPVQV
The following applies: 100 μM compound, 20 μM ATP; read-out: Kinase activity, % of activity in the absence of inhibitor. On the procedure:
as §1

The target of a further test is PAK2 (Homo sapiens, UniProt Q13177). The following applies: 100 μM compound, 20 μM ATP; read-out: Kinase activity, % of activity in the absence of inhibitor. The protocol:
as §1

In a further test the target is ERK1 (Homo sapiens, UniProt P27361). Particulars: 100 μM compound, 5 μM ATP; read-out: Kinase activity, % of activity in the absence of inhibitor. On the procedure: as §1
Sequence of ERK1 (P27361 whole entry): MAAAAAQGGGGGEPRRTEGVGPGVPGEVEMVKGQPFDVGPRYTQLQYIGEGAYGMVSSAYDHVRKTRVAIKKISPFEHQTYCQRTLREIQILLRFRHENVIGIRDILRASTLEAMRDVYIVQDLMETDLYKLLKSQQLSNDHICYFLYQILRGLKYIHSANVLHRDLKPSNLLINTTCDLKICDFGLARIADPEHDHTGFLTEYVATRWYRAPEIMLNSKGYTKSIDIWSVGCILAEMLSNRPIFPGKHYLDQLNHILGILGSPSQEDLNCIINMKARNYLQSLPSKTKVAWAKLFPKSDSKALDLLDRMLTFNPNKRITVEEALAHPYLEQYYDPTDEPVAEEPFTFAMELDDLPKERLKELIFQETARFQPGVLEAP
A further test deals with PKA (Homo sapiens, UniProt P17612). Particulars: for activity at 100 µM: 100 μM compound, 20 μM ATP, read-out: Kinase activity, % of activity in the absence of inhibitor. The protocol:
as §1

Sequence of PAK2 (Q13177 whole entry): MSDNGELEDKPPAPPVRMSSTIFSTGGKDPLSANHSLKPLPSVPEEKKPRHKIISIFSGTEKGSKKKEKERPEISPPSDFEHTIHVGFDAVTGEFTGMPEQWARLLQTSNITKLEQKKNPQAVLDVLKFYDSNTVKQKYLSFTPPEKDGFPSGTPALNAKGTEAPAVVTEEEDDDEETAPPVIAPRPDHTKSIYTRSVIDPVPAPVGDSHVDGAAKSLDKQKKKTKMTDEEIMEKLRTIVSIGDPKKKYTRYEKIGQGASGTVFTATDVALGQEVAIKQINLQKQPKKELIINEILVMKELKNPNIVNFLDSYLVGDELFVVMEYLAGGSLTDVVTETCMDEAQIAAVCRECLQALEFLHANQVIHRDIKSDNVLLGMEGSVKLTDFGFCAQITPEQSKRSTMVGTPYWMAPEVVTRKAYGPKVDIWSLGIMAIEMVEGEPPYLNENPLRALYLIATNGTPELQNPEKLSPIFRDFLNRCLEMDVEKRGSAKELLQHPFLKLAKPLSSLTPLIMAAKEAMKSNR

Take `CC(C)(COP(=O)(O)OP(=O)(O)OCC1OC(n2cnc3c(N)ncnc32)C(O)C1O)C(O)C(=O)NCCC(=O)NCCS` (stereo not shown) [dpCoA, dephospho-CoA]: the activity at 100 µM at PKD1 came to 104%; at EPH-B3, 94.4%; at PAK2 it was 112%; at ERK1, 114%; on PKA it was 81.3%.

Regarding `CC(C)(COP(=O)(O)OP(=O)(O)OC[C@H]1O[C@@H](n2cnc3c(N)ncnc32)[C@H](O)[C@@H]1OP(=O)(O)O)[C@@H](O)C(=O)NCCC(=O)NCCS` [CoA, Coenzyme A], the activity at 100 µM worked out at 112% on PKD1; 104% at EPH-B3; 88.8% on PAK2; 118% on ERK1; 98.9% on PKA. For the same compound, on PKA (kinase profiling, 100 μM), the “PKA inhibition in vitro” value is “not detected”.

As to `Nc1ncnc2c1ncn2C1OC(COP(=O)(O)OP(=O)(O)O)C(O)C1O` (stereo not shown) [ADP], the activity at 100 µM is 56.2% at PKD1; 18% at EPH-B3; 90.3% on PAK2; 67.7% at ERK1; 27.8% at PKA.
